Results on 13 molecules are retold here after patent US12161649B2, “Inhibitors of EGFR and methods of use thereof” (DANA-FARBER CANCER INSTITUTE, INC., priority 2018, dated 2024).

The IC50 is the midpoint of a concentration-inhibition curve.

For assay [1], the target named is T1, recombinant EGFR 790M/L858R kinase (Homo sapiens, UniProt P00533, L858R/T790M).
T1 construct: Constructs spanning residues 696-1022 of the human EGFR; GST (cleaved yes); made in house; host or cells: Sf9 insect cells
Description: HTRF-based EGFR biochemical assay. How it is done:
EGFR biochemical assays are carried out using a homogeneous time-resolved fluorescence (HTRF) assay. The reaction mixtures contain biotin-Lck-peptide substrate, wild type, or mutant EGFR enzyme in reaction buffer. Enzyme concentrations are adjusted to accommodate varying kinase activity and ATP concentrations. Compounds of the present application are diluted into the assay mixture and IC50 values are determined using 12-point inhibition curves.
Constructs spanning residues 696-1022 of the human EGFR (including wild type and L858R, L858R/T790M, T790M, and T790M/V948R mutant sequences) were prepared in a GST-fusion format using the pTriEX system (Novagen) for expression in Sf9 insect cells essentially as described (Yun et al., PNAS 105, 2070-2075 (2008): Yun et al., Cancer Cell 11, 217-227 (2007)). EGFR kinase proteins were purified by glutathione-affinity chromatography followed by size-exclusion chromatography after cleavage with TEV or thrombin to remove the GST fusion partner following established procedures. (Yun 2008; Yun 2007).
EGFR biochemical assays were carried out using a homogeneous time-resolved fluorescence (HTRF) assay as described previously. The reaction mixtures contained 1 μM biotin-Lck-peptide substrate, wild type or mutant EGFR enzyme in reaction buffer (50 mM HEPES pH 7.1, 10 mM MgCl2, 0.01% BSA, 1 mM TCEP and 0.1 mM […]) at a final volume of 10 μL. Enzyme concentrations were adjusted to accommodate varying kinase activity and ATP concentrations (0.2-0.4 nM L858R/T790M; or 2-4 nM L858R, or 2-4 nM T790M, or 40 nM WT). All reactions were carried out at room temperature in white ProxiPlate™ 384-well Plus plates (PerkinElmer) and were quenched with 5 μL of 0.2 M EDTA at 60 min. Five μL per well of the detection reagent containing 2.5 ng PT66K (Cis-bio) and 0.05 μg SAXL (Prozyme) were added, and the plates were then incubated at room temperature for 1 hour and read with an EnVision plate reader. For IC50 determinations, compounds of the present application were diluted into assay mixture (final DMSO 0.5%), and IC50 values were determined by 12-point inhibition curves (from 50 to 0.000282 μM) in duplicate under the assay conditions as described above.
A general note: Time-resolved FRET reads energy transfer from a long-lived donor to a nearby acceptor.

Assay [2] deals with T2, T790M/L858R Ba/F3 cells (Homo sapiens, UniProt P00533, T790M/L858R, cells depend on it).
T2 construct: The constructs were shuttled into the retroviral vector JP1540 using the BD Creator® System (BD Biosciences)
T2 sequence (P00533 whole entry T790M/L858R): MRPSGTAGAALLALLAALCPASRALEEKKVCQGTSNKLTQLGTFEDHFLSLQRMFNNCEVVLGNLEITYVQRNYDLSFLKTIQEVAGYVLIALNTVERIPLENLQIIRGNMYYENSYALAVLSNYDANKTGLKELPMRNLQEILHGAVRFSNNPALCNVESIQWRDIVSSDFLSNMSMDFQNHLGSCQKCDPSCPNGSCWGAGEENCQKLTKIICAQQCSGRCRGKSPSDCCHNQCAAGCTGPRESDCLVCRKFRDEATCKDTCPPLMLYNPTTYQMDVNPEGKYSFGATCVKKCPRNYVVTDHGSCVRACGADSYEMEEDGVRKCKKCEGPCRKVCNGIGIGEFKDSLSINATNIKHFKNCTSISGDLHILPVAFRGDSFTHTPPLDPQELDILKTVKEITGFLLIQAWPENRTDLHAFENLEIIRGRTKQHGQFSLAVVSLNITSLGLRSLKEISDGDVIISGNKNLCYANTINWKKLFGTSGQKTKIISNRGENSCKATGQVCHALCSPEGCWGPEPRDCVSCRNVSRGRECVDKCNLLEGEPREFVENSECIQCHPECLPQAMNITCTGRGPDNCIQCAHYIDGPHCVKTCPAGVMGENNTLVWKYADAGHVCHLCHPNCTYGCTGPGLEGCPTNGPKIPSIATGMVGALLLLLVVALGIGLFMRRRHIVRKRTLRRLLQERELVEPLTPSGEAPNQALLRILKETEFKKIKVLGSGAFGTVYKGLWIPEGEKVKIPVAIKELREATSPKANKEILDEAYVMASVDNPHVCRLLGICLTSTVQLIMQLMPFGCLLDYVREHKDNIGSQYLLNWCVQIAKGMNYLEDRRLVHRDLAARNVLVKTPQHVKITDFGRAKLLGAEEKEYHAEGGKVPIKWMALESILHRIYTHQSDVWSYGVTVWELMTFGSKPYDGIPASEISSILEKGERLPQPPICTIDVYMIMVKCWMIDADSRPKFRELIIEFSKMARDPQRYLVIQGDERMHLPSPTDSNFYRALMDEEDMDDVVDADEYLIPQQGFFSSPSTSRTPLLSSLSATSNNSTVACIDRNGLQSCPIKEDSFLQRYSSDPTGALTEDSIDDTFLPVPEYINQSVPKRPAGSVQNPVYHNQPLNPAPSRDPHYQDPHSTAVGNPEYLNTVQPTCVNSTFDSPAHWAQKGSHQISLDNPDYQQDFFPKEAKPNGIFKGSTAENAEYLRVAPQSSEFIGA
Nature of the assay: Ba/F3 cell proliferation (MTS assay). Conditions: antiproliferative activity. It is filed as cell-based, murine. As to the method: The EGFR mutant L858R, Del E746_A750, L858R/T790M, DelE746_A750/T790M, L858R/T790M/C797S and Del/T790M/C797S Ba/F3 cells were previously described (Zhou et al., Nature 462, (2009), 1070-1074). All cell lines were maintained in RPMI 1640 (Cellgro; Mediatech Inc., Herndon, CA) supplemented with 10% FBS 100 units/mL penicillin, 100 units/mL streptomycin, and 2 mM glutamine. L858R cells were maintained in ACL-4 media (Invitrogen, Carlsbad, CA) supplemented with 5% FBS, 100 units/mL penicillin, 100 units/mL streptomycin, and 2 mM glutamine. The EGFR 1941R mutation was introduced via site directed mutagenesis using the Quick Change Site-Directed Mutagenesis kit (Stratagene; La Jolla, CA) according to the manufacturer's instructions. All constructs were confirmed by DNA sequencing. The constructs were shuttled into the retroviral vector JP1540 using the BD Creator® System (BD Biosciences). Ba/F3 cells were infected with retrovirus and according to standard protocols, as described previously (Zhou 2009). Stable clones were obtained by selection in puromycin (2 μg/ml).
Growth and inhibition of growth was assessed by MTS assay and was performed according to previously established methods (Zhou 2009). The MTS assay is a colorimetric method for determining the number of viable cells that is based on the bioreduction of MTS by cells to a formazan product that is soluble in cell culture medium and can be detected spectrophotometrically. Ba/F3 cells of different EGFR genotypes were exposed to treatment and the number of cells used per experiment determined empirically and has been previously established (Zhou 2009). All experimental points were set up in six wells and all experiments were repeated at least three times. […] The curves were fitted using a non-linear regression model with a sigmoidal dose response.
A general note: Tetrazolium assays rely on reduction of a dye to a coloured formazan, in cell work by metabolically active cells.

Where [3] appears, read: absence of cetuximab, read-out: Ba/F3 cellular activity (EC50) T790M/L858R.
The mark [4] stands for this setting: read-out: Ba/F3 cellular activity (EC50) T790M/L858R + Cetuximab, presence of 1 μg/mL cetuximab.

Where two headings read alike, the source gives them in different places. Where only a bound is given, the exact number is not on record here.

T1 sequence (P00533 696-1022 T790M/L858R): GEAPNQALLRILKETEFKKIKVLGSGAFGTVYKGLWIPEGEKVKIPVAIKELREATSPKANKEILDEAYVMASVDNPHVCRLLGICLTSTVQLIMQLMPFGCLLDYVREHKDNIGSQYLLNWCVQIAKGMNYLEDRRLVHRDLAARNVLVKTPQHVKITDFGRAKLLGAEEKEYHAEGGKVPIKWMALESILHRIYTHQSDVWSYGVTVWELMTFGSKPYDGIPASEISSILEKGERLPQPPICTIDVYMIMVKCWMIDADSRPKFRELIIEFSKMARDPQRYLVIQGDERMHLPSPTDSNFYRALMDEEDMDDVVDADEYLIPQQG

Consider `CN1CCN(c2ccc(C(=O)N[C@H]3CNc4ccc(F)cc4N(Cc4ccccc4)C3=O)cc2)CC1` [Compound I-1, (S)-N-(1-benzyl-8-fluoro-2-oxo-2,3,4,5-tetrahydro-1H-benzo[b][1,4]diazepin-3-yl)-4-(4-methylpiperazin-1-yl)benzamide], for which the concentration for half-maximal inhibition (IC50) in assay [1] was above 750 nM. Besides, the EC50 in assay [2] (setting [3]) and in assay [2] (setting [4]) was above 750 nM in each case.

With `CN1CCN(c2ccc(NC(=O)N[C@H]3CNc4ccc(F)cc4N(Cc4ccccc4)C3=O)cc2)CC1` [Compound I-2, (S)-1-(1-benzyl-8-fluoro-2-oxo-2,3,4,5-tetrahydro-1H-benzo[b][1,4]diazepin-3-yl)-3-(4-(4-methylpiperazin-1-yl)phenyl)urea], the IC50 in assay [1] was above 750 nM. Further, the EC50 in assay [2] (setting [3]) and in assay [2] (setting [4]) was above 750 nM in each case.

Regarding `O=C(Cc1ccc(N2CCOCC2)cc1)N[C@H]1CNc2ccc(F)cc2N(Cc2ccccc2)C1=O` [Compound I-3, (S)-N-(1-benzyl-8-fluoro-2-oxo-2,3,4,5-tetrahydro-1H-benzo[b][1,4]diazepin-3-yl)-2-(4-morpholinophenyl)acetamide], in assay [1], the concentration for half-maximal inhibition (IC50) is above 750 nM. Besides, the EC50 in assay [2] (setting [3]) and in assay [2] (setting [4]) was above 750 nM throughout.

Consider `CN1CCN(c2cccc(C(=O)N[C@H]3CNc4ccc(F)cc4N(Cc4ccccc4)C3=O)c2)CC1` [Compound I-4, (S)-N-(1-benzyl-8-fluoro-2-oxo-2,3,4,5-tetrahydro-1H-benzo[b][1,4]diazepin-3-yl)-3-(4-methylpiperazin-1-yl)benzamide], for which the IC50 in assay [1] was above 750 nM. Moreover, the EC50 in assay [2] (setting [3]) and in assay [2] (setting [4]) was above 750 nM in each case.

Consider `COc1cc(N2CCOCC2)ccc1C(=O)N[C@H]1CNc2ccc(F)cc2N(Cc2ccccc2)C1=O` [Compound I-5, (S)-N-(1-benzyl-8-fluoro-2-oxo-2,3,4,5-tetrahydro-1H-benzo[b][1,4]diazepin-3-yl)-2-methoxy-4-morpholinobenzamide], for which the half-inhibitory concentration (IC50) in assay [1] was above 750 nM. In addition, the EC50 in assay [2] (setting [3]) and in assay [2] (setting [4]) was above 750 nM in each case.

Regarding `CN1CCN(c2ccnc(C(=O)N[C@H]3CNc4ccc(F)cc4N(Cc4ccccc4)C3=O)c2)CC1` [Compound I-6, (S)-N-(1-benzyl-8-fluoro-2-oxo-2,3,4,5-tetrahydro-1H-benzo[b][1,4]diazepin-3-yl)-4-(4-methylpiperazin-1-yl)picolinamide], the IC50 in assay [1] is above 750 nM. Besides, the EC50 in assay [2] (setting [3]) and in assay [2] (setting [4]) was above 750 nM throughout.

With `COc1ccc(C2=CCNCC2)cc1C(=O)N[C@H]1CNc2ccc(F)cc2N(Cc2ccccc2)C1=O` [Compound I-7, (S)-N-(1-benzyl-8-fluoro-2-oxo-2,3,4,5-tetrahydro-1H-benzo[b][1,4]diazepin-3-yl)-2-methoxy-5-(1,2,3,6-tetrahydropyridin-4-yl)benzamide], the half-inhibitory concentration (IC50) in assay [1] is above 750 nM. Moreover, the EC50 in assay [2] (setting [3]) and in assay [2] (setting [4]) was above 750 nM each time.

Regarding `O=C(N[C@H]1CNc2ccc(F)cc2N(Cc2ccccc2)C1=O)c1ccc(N2CCOCC2)cn1` [Compound I-8, (S)-N-(1-Benzyl-8-fluoro-2-oxo-2,3,4,5-tetrahydro-1H-benzo[b][1,4]diazepin-3-yl)-5-morpholinopicolinamide], the IC50 in assay [1] was above 750 nM. Further, the EC50 in assay [2] (setting [3]) and in assay [2] (setting [4]) was above 750 nM in each case.

With `O=C(Cc1ccc(-n2cnnn2)cc1)N[C@H]1CNc2ccc(F)cc2N(Cc2ccccc2)C1=O` [Compound I-9, (S)-2-(4-(1H-tetrazol-1-yl)phenyl)-N-(1-benzyl-8-fluoro-2-oxo-2,3,4,5-tetrahydro-1H-benzo[b][1,4]diazepin-3-yl)acetamide], in assay [1], the IC50 is above 750 nM. Moreover, the EC50 in assay [2] (setting [3]) and in assay [2] (setting [4]) was above 750 nM throughout.

Regarding `O=C1[C@@H](N2Cc3ccc(F)cc3C2=O)CNc2ccc(F)cc2N1Cc1ccccc1` [Compound I-10, (S)-1-benzyl-8-fluoro-3-(6-fluoro-1-oxoisoindolin-2-yl)-1,3,4,5-tetrahydro-2H-benzo[b][1,4]diazepin-2-one], the IC50 in assay [1] was below 250 nM. The values for the EC50 in assay [2] (setting [3]) and in assay [2] (setting [4]) were above 750 nM and below 250 nM, respectively.

As for `CN1CCN(c2ccc(-c3ccc4c(c3)C(=O)N([C@H]3CNc5ccc(F)cc5N(Cc5ccccc5)C3=O)C4)cc2)CC1` [Compound I-11, (S)-1-benzyl-8-fluoro-3-(6-(4-(4-methylpiperazin-1-yl)phenyl)-1-oxoisoindolin-2-yl)-1,3,4,5-tetrahydro-2H-benzo[b][1,4]diazepin-2-one], in assay [1], the IC50 was below 250 nM. The values for the EC50 in assay [2] (setting [3]) and in assay [2] (setting [4]) were above 750 nM and below 250 nM, respectively.

As to `CN1CCN(c2ccc3c(c2)C(=O)N([C@H]2CNc4ccc(F)cc4N(Cc4ccccc4)C2=O)C3)CC1` [Compound I-13, (S)-1-benzyl-8-fluoro-3-(6-(4-methylpiperazin-1-yl)-1-oxoisoindolin-2-yl)-1,3,4,5-tetrahydro-2H-benzo[b][1,4]diazepin-2-one], in assay [1], the IC50 was above 750 nM. The EC50 in assay [2] (setting [3]) and in assay [2] (setting [4]) was above 750 nM in each case.

Regarding `CN1CCN(c2ccc(-c3ccc4c(c3)CN([C@H]3CNc5ccc(F)cc5N(Cc5ccccc5)C3=O)C4=O)cc2)CC1` [Compound I-14, (S)-1-benzyl-8-fluoro-3-(5-(4-(4-methylpiperazin-1-yl)phenyl)-1-oxoisoindolin-2-yl)-1,3,4,5-tetrahydro-2H-benzo[b][1,4]diazepin-2-one], the half-inhibitory concentration (IC50) in assay [1] was below 250 nM. The EC50 in assay [2] (setting [3]) was above 750 nM; in assay [2] (setting [4]), below 250 nM.
